Reference: US20190247302A1, “MATERIALS AND METHODS FOR TREATING OPHTHALMIC INFLAMMATION” (University of Miami, priority 2016, published 2019)
Entries after “also recorded” stand apart in the source; their conditions may differ.

Tests used:
LPS-induced keratitis = assay: LPS-induced keratitis, local BRDi administration; clinical haze score; assay type: in vivo
Excerpt: FIG. 5 is a bar graph illustrating the effect of prior formulations on corneal clarity and corneal edema following LPS-induced keratitis. Y axis=clinical haze score; X axis=time after application of LPS+formulations (IBET151, topical (solid bar); IBET151, subconjunctival (hashed bar); solvent, subconjunctival (dotted bar)). […] FIG. 6 is a bar graph illustrating the effect of a formulation of the instant disclosure (administered via subconjunctival injection) on corneal clarity and corneal edema following LPS-induced keratitis. Y axis=clinical haze score; X axis=time after application of LPS+IBET151 formulation (solid bar); solvent alone (hashed bar); saline (dotted bar)). […] FIG. 7 is a bar graph illustrating the effect of a formulation of the instant disclosure (topical administration) on corneal clarity and corneal edema following LPS-induced keratitis. Y axis=clinical haze score; X axis=time after application of LPS+JQ1 formulation (topical, hashed bar); solvent alone (subconjunctival, dotted bar)). […] Next, to address whether local administration of bromodomain inhibitors could be used to regulate ocular inflammatory responses, an ophthalmic formulation BRDi compounds was developed. De novo development was required because the solution required to dissolve these non-polar compounds was not amenable to application to the ocular surface, as they require dilution in high concentrations of DMSO and Tween 80. […] The new formulation comprising bromodomain inhibitor IBET-151 was delivered locally in the eye by subconjunctival injection (20 μg/kg/body weight) just prior and during the induction of in vivo LPS-induced keratitis. […] To confirm that a second bromodomain inhibitor could successfully be used in the ocular compartment to reduce inflammation, JQ1 dissolved in the new ophthalmologic formulation was locally administered (1 μg/μl). The formulation was applied topically, i.e. on the corneal surface 1 drop/3× per day.

[1] = Concentration of bromodomain inhibitor achievable in the new ophthalmic formulation; assay type: physicochemical; details: 0.5% DMSO, 0.5% Tween-80, 0.9% NaCl, 1.8% Captisol, versus previous formulations
Excerpt: Next, to address whether local administration of bromodomain inhibitors could be used to regulate ocular inflammatory responses, an ophthalmic formulation BRDi compounds was developed. De novo development was required because the solution required to dissolve these non-polar compounds was not amenable to application to the ocular surface, as they require dilution in high concentrations of DMSO and Tween 80.
To address this issue, a new ophthalmic formulation was developed. The bromodomain inhibitors were successfully diluted at higher concentrations when formulated with DMSO, polysorbate (Tween-80), preservative free 0.9% NaCl, and captisol (Captisol®), which is a polyanionic beta-cyclodextrin derivative providing. […] Using this new formulation, the concentrations of both DMSO and Tween-80 were able to be reduced, from 5% to 0.5% of each (which is tolerable to the eye). The final solution containing the bromodomain inhibitors was 0.5% DMSO, 0.5% Tween-80 and 1.8% Captisol.

[2] = system: TNFα production in RAW cells; assay: TNFα protein in LPS-treated RAW cells, intracellular antibody staining and flow cytometry; assay type: cell-based; details: 1 μg/ml LPS, BRDi 67.5-500 nM
Method: Y axis=TNFα percentage of P1 gate; X axis=no LPS/no BRDi, 1 μg/ml LPS/no BRDi, BRDI 500 nM LPS, BRDI 250 nM LPS, BRDI 125 nM LPS, BRDI 67.5 Nm LPS. Triangles=JQ1; squares=IBET151; circles=EP313.
Studies then examined protein production and confirmed that TNFα was reduced by treating RAW cells in vitro with multiple bromodomain inhibitor compounds (FIG. 2).

corneal keratocytes = assay: Cytokine mRNA in LPS-exposed human corneal keratocytes; assay type: cell-based; details: 4 hours LPS, 500 nM
Method: (§1) FIGS. 8A-8C are a bar graph illustrating the effect of BRDi on a human ocular surface primary parenchymal cell line. FIG. 8A illustrates cytokine/GAPDH mRNA levels (ratio to no treatment) (Y-axis) of IL-8, IL-1β, IL-6, TNFα, and CCL2 in HCEC administered no treatment (solid bars), three hours after exposure to LPS (gray bar), and three hours after exposure to LPS and JQ1 (500 nM, hashed bar). FIG. 8B illustrates cytokine/GAPDH mRNA levels (ratio to no treatment) (Y-axis) of IL-8, IL-1β, and IL-6 in keratocytes administered no treatment (solid bars), four hours after exposure to LPS (gray bar), four hours after exposure to LPS and JQ1 (500 nM, hashed bar), and four hours after exposure to LPS and EP313 (500 nM, checked bar). FIG. 8C illustrates cytokine/GAPDH mRNA levels (ratio to no treatment) (Y-axis) of CCL2 in keratocytes administered no treatment (solid bars), four hours after exposure to LPS (gray bar), four hours after exposure to LPS and JQ1 (500 nM, hashed bar), and four hours after exposure to LPS and EP313 (500 nM, checked bar).
The ability of BRDi compounds to regulate production of dry eye-associated cytokines and chemokines produced by human ocular parenchymal cell populations also was examined. In vitro cells from the cornea and conjunctiva compartments of donated human eyes (Florida Lions Bank) were expanded. […]

[3] = system: conjunctival epithelial cells (HCEC); assay: Cytokine mRNA in LPS-exposed human conjunctival epithelial cells (HCEC); assay type: cell-based; details: 3 hours LPS, 500 nM
Method: as §1
The ability of BRDi compounds to regulate production of dry eye-associated cytokines and chemokines produced by human ocular parenchymal cell populations also was examined. In vitro cells from the cornea and conjunctiva compartments of donated human eyes (Florida Lions Bank) were expanded. Primary cell lines were developed comprising either corneal keratocytes or conjunctival epithelial cells (HCEC) (FIG. 8A-8C). Following 3 hr. exposure to LPS, HCEC produced significant levels of IL-8, […], TNFα, CCL2, and detectable levels of IL-6 RNA (FIG. 8A). […] Corneal keratocyte cultures were also examined for RNA production and were also regulated by BRDi compounds JQ1 and EP313 (FIGS. 8B and 8C). […] These observations extend the potential of BRDi to inhibit ocular inflammation. Additionally, differences may exist between the families of BRDi compounds such that particular BRDi may be more useful under a specific set of disease conditions.

Row | SMILES | clinical haze score (corneal clarity and corneal edema) (LPS-induced keratitis; new formulation RLVP.001, subconjunctival injection, 20 μg/kg/body weight) | clinical haze score (corneal clarity and corneal edema) (LPS-induced keratitis; new formulation RLVP.001, subconjunctival injection, 20 μg/kg/body weight, listed as IBET-151) | concentration of bromodomain inhibitor that can be formulated [1] | TNFα protein (TNFα percentage of P1 gate) [2] | cytokine RNA production (corneal keratocytes) | clinical haze score (corneal clarity and corneal edema) (LPS-induced keratitis; new formulation RLVP.001, topical, 1 μg/μl, 1 drop/3× per day) | CCL2 RNA level [3] | IL-1β RNA level [3] | IL-6 RNA level [3] | IL-8 RNA level [3] | TNFα RNA level [3]
1 | COc1cc2c(cc1-c1c(C)noc1C)ncc1[nH]c(=O)n([C@H](C)c3ccccn3)c12 [IBET151] | prevents corneal opacification | ameliorates the development of corneal inflammation | significantly higher concentrations | TNFα protein inhibition |  |  |  |  |  |  | 
2 | Cc1sc2c(c1C)C(c1ccc(Cl)cc1)=N[C@@H](CC(=O)OC(C)(C)C)c1nnc(C)n1-2 [JQ1] |  |  | significantly higher concentrations | TNFα protein inhibition | regulated | prevents corneal opacification; also recorded: successfully ameliorated the inflammatory response in the cornea | marked decreases | marginally reduced | marked decreases | marked decreases | marked decreases
